From paper PMC9897758, “Computational prediction and in vitro analysis of the potential ligand binding site within the extracellular ATP receptor, P2K2” (Plant Signaling & Behavior, 2023)
Residue numbers refer to the chain shown, from its start.

What was measured:
Assay in all cases: radioligand binding, gel filtration separation of bound and free ATP, saturation fit
[1] = biological target: T1, P2K2 extracellular lectin domain (LecRK-I.5), GST-tagged (Arabidopsis thaliana, UniProt Q9M1G4)
T1 construct: gene LECRK15; extracellular lectin domain (ectodomain), GST fusion, purified from E. coli BL21-AI
T1 sequence (Q9M1G4 23-286 limits assumed): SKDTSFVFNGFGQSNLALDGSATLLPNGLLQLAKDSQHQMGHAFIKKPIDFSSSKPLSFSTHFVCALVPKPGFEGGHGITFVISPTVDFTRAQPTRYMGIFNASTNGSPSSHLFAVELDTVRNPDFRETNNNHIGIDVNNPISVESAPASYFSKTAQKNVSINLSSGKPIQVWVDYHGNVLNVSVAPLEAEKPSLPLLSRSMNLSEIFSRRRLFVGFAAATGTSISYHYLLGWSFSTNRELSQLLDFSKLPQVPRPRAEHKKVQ

[2] = biological target: T2, P2K2 extracellular lectin domain (LecRK-I.5), GST-tagged (Arabidopsis thaliana, UniProt Q9M1G4, H99A)
T2 construct: gene LECRK15; extracellular lectin domain (ectodomain), GST fusion, purified from E. coli BL21-AI
T2 sequence (Q9M1G4 23-286 H99A limits assumed): T1 sequence (Q9M1G4 23-286 limits assumed) with H77A

[3] = biological target: T3, P2K2 extracellular lectin domain (LecRK-I.5), GST-tagged (Arabidopsis thaliana, UniProt Q9M1G4, S246A)
T3 construct: gene LECRK15; extracellular lectin domain (ectodomain), GST fusion, purified from E. coli BL21-AI
T3 sequence (Q9M1G4 23-286 S246A limits assumed): T1 sequence (Q9M1G4 23-286 limits assumed) with S224A

[4] = biological target: T4, P2K2 extracellular lectin domain (LecRK-I.5), GST-tagged (Arabidopsis thaliana, UniProt Q9M1G4, T245A)
T4 construct: gene LECRK15; extracellular lectin domain (ectodomain), GST fusion, purified from E. coli BL21-AI
T4 sequence (Q9M1G4 23-286 T245A limits assumed): T1 sequence (Q9M1G4 23-286 limits assumed) with T223A

[5] = biological target: T5, P2K2 extracellular lectin domain (LecRK-I.5), GST-tagged (Arabidopsis thaliana, UniProt Q9M1G4, R144A)
T5 construct: gene LECRK15; extracellular lectin domain (ectodomain), GST fusion, purified from E. coli BL21-AI
T5 sequence (Q9M1G4 23-286 R144A limits assumed): T1 sequence (Q9M1G4 23-286 limits assumed) with R122A

Kd [1]: 41.6 ± 13.8 nM | Kd [2]: > 1000 nM | Kd [3]: 109 ± 29.7 nM | Kd [4]: 41.7 ± 14.1 nM | Kd [5]: 104 ± 25 nM
Structure (SMILES): Nc1ncnc2c1ncn2[C@@H]1O[C@H](COP(=O)(O)OP(=O)(O)OP(=O)(O)O)[C@@H](O)[C@H]1O [ATP]
